Source: patent publication US10463710B2, “Short synthetic peptide for the treatment and/or prophylaxis of autoimmune and inflammatory disorders” (MacKay Memorial Hospital, priority 2015, dated 2019)
Entries after “also recorded” stand apart in the source; their conditions may differ. Ends that are not written are not given here.

Key:
in vitro = format: cell-based, murine; details: mouse
[1] = test system: Raw264.7 macrophage cells; experiment: in vitro; format: cell-based, murine; details: Example 1 results

Row | Compound | viability at 24 h, 20 μM (in vitro; Raw264.7 cell viability) | bioactivity / inhibitory activity relative to 7-mer (in words) [1] | bioactivity / inhibitory activity relative to 7-mer (in words) ([1]; listed as 7-mer (D→N)) | viability at 24 h, 20 μM (in vitro; Rar264.7 cell viability)
1 | CC(=O)N[C@@H](Cc1ccccc1)C(=O)N[C@@H](CC(C)C)C(=O)N[C@@H](Cc1ccc(O)cc1)C(=O)N[C@@H](CCCNC(=N)N)C(=O)N[C@H](C(=O)N[C@@H](CCCNC(=N)N)C(=O)N[C@@H](CO)C(N)=O)C(C)C [7-mer (D→F), NH2-Phe-Leu-Tyr-Arg-Val-Arg-Ser-COOH] | 61.9 ± 4.91% | could sustain 7-mer bioactivity, only partly; also recorded: relatively the same bioactivity that is similar to the 7-mer | – | –
2 | CC(=O)N[C@@H](CC(C)C)C(=O)N[C@@H](CC(C)C)C(=O)N[C@@H](Cc1ccc(O)cc1)C(=O)N[C@@H](CCCNC(=N)N)C(=O)N[C@H](C(=O)N[C@@H](CCCNC(=N)N)C(=O)N[C@@H](CO)C(N)=O)C(C)C [7-mer (D→L), NH2-Leu-Leu-Tyr-Arg-Val-Arg-Ser-COOH] | 57.6 ± 2.65% | could sustain 7-mer bioactivity, only partly; also recorded: relatively the same bioactivity that is similar to the 7-mer | – | –
3 | CC(=O)N[C@H](C(=O)N[C@@H](CC(C)C)C(=O)N[C@@H](Cc1ccc(O)cc1)C(=O)N[C@@H](CCCNC(=N)N)C(=O)N[C@H](C(=O)N[C@@H](CCCNC(=N)N)C(=O)N[C@@H](CO)C(N)=O)C(C)C)C(C)C [7-mer (D→V), NH2-Val-Leu-Tyr-Arg-Val-Arg-Ser-COOH] | 56.8 ± 3.53% | relatively the same bioactivity that is similar to the 7-mer | could sustain 7-mer bioactivity, only partly | –
4 | CC(=O)N[C@@H](CC(=O)O)C(=O)N[C@@H](CC(C)C)C(=O)N[C@@H](Cc1ccc(O)cc1)C(=O)N[C@@H](CCCNC(=N)N)C(=O)N[C@H](C(=O)N[C@@H](CCC(N)=O)C(=O)N[C@@H](CO)C(N)=O)C(C)C [7-mer (R2→Q), NH2-Asp-Leu-Tyr-Arg-Val-Gln-Ser-COOH] | 68.4 ± 1.25% | could sustain 7-mer bioactivity, only partly | – | –
5 | CC(=O)N[C@@H](CC(=O)O)C(=O)N[C@@H](CC(C)C)C(=O)N[C@@H](Cc1ccc(O)cc1)C(=O)N[C@@H](CCCNC(=N)N)C(=O)N[C@@H](CC(C)C)C(=O)N[C@@H](CCCNC(=N)N)C(=O)N[C@@H](CO)C(N)=O [7-mer (V→L), NH2-Asp-Leu-Tyr-Arg-Leu-Arg-Ser-COOH] | 61.1 ± 3.96% | could sustain 7-mer bioactivity, only partly; also recorded: relatively the same bioactivity that is similar to the 7-mer | – | –
6 | CC(=O)N[C@H](CC(=O)O)C(=O)N[C@@H](CC(C)C)C(=O)N[C@@H](Cc1ccc(O)cc1)C(=O)N[C@@H](CCCNC(=N)N)C(=O)N[C@H](C(=O)N[C@@H](CCCNC(=N)N)C(=O)N[C@@H](CO)C(N)=O)C(C)C [7-mer DD, NH2-(D-Asp)-Leu-Tyr-Arg-Val-Arg-Ser-COOH] | – | – | – | 52.1 ± 1.45%
7 | CC(=O)N[C@@H](CC(=O)O)C(=O)N[C@H](CC(C)C)C(=O)N[C@@H](Cc1ccc(O)cc1)C(=O)N[C@@H](CCCNC(=N)N)C(=O)N[C@H](C(=O)N[C@@H](CCCNC(=N)N)C(=O)N[C@@H](CO)C(N)=O)C(C)C [7-mer DL, NH2-Asp-(D-Leu)-Tyr-Arg-Val-Arg-Ser-COOH] | – | lose its biological activity | – | 101 ± 1.48%
8 | CC(=O)N[C@@H](CC(=O)O)C(=O)N[C@@H](CC(C)C)C(=O)N[C@@H](Cc1ccc(O)cc1)C(=O)N[C@@H](CCCNC(=N)N)C(=O)N[C@H](C(=O)N[C@H](CCCNC(=N)N)C(=O)N[C@@H](CO)C(N)=O)C(C)C [7-mer DR2, NH2-Asp-(D-Leu)-Tyr-Arg-Val-(D-Arg)-Ser-COOH] | – | lose its biological activity | – | 103 ± 2.51%
9 | CC(=O)N[C@@H](CC(=O)O)C(=O)N[C@@H](CC(C)C)C(=O)N[C@@H](Cc1ccc(O)cc1)C(=O)N[C@H](CCCNC(=N)N)C(=O)N[C@H](C(=O)N[C@@H](CCCNC(=N)N)C(=O)N[C@@H](CO)C(N)=O)C(C)C [7-mer DR, NH2-Asp-Leu-Tyr-(D-Arg)-Val-Arg-Ser-COOH] | – | lose its biological activity | – | 100 ± 2.58%
10 | CC(=O)N[C@@H](CC(=O)O)C(=O)N[C@@H](CC(C)C)C(=O)N[C@@H](Cc1ccc(O)cc1)C(=O)N[C@@H](CCCNC(=N)N)C(=O)N[C@H](C(=O)N[C@@H](CCCNC(=N)N)C(=O)N[C@H](CO)C(N)=O)C(C)C [7-mer DS, NH2-Asp-Leu-Tyr-Arg-Val-Arg-(D-Ser)-COOH] | – | lose its biological activity | – | 107 ± 2.23%
11 | CC(=O)N[C@@H](CC(=O)O)C(=O)N[C@@H](CC(C)C)C(=O)N[C@@H](Cc1ccc(O)cc1)C(=O)N[C@@H](CCCNC(=N)N)C(=O)N[C@@H](C(=O)N[C@@H](CCCNC(=N)N)C(=O)N[C@@H](CO)C(N)=O)C(C)C [7-mer DV, NH2-Asp-Leu-Tyr-Arg-(D-Val)-Arg-Ser-COOH] | – | – | – | 57.9 ± 6.2%
12 | CC(=O)N[C@@H](CC(=O)O)C(=O)N[C@@H](CC(C)C)C(=O)N[C@H](Cc1ccc(O)cc1)C(=O)N[C@@H](CCCNC(=N)N)C(=O)N[C@H](C(=O)N[C@@H](CCCNC(=N)N)C(=O)N[C@@H](CO)C(N)=O)C(C)C [7-mer DY, NH2-Asp-Leu-(D-Tyr)-Arg-Val-Arg-Ser-COOH] | – | lose its biological activity | – | 107.5 ± 0.63%
13 | CC(=O)N[C@@H](C)C(=O)N[C@@H](CC(C)C)C(=O)N[C@@H](Cc1ccc(O)cc1)C(=O)N[C@@H](CCCNC(=N)N)C(=O)N[C@H](C(=O)N[C@@H](CCCNC(=N)N)C(=O)N[C@@H](CO)C(N)=O)C(C)C [7-mer Da, NH2-Ala-Leu-Tyr-Arg-Val-Arg-Ser-COOH] | 52.9 ± 0.84% | could sustain the inhibitory activity | – | –
14 | CC[C@H](C)[C@H](NC(=O)[C@H](CC(=O)O)NC(C)=O)C(=O)N[C@@H](Cc1ccc(O)cc1)C(=O)N[C@@H](CCCNC(=N)N)C(=O)N[C@H](C(=O)N1CCC[C@H]1C(=O)N[C@@H](CO)C(N)=O)C(C)C [7-mer IP, NH2-Asp-Ile-Tyr-Arg-Val-Pro-Ser-COOH] | 81.7 ± 4.5% | could sustain 7-mer bioactivity, only partly | – | –
15 | CC(=O)N[C@@H](CC(=O)O)C(=O)N[C@@H](CC(C)C)C(=O)N[C@@H](Cc1ccc(O)cc1)C(=O)N[C@@H](CCCCN)C(=O)N[C@H](C(=O)N1CCC[C@H]1C(=O)N[C@@H](CO)C(N)=O)C(C)C [7-mer KP, NH2-Asp-Leu-Tyr-Lys-Val-Pro-Ser-COOH] | 81.2 ± 3.43% | could sustain 7-mer bioactivity, only partly | – | –
16 | CC(=O)N[C@@H](CC(=O)O)C(=O)N[C@@H](C)C(=O)N[C@@H](Cc1ccc(O)cc1)C(=O)N[C@@H](CCCNC(=N)N)C(=O)N[C@H](C(=O)N[C@@H](CCCNC(=N)N)C(=O)N[C@@H](CO)C(N)=O)C(C)C [7-mer La, NH2-Asp-Ala-Tyr-Arg-Val-Arg-Ser-COOH] | 57.4 ± 1.71% | could sustain the inhibitory activity | – | –
17 | CSCC[C@H](NC(=O)[C@H](CCCNC(=N)N)NC(=O)[C@H](Cc1ccc(O)cc1)NC(=O)[C@H](CC(C)C)NC(=O)[C@H](CC(=O)O)NC(C)=O)C(=O)N[C@@H](CCCCN)C(=O)N[C@@H](CO)C(N)=O [7-mer MK, NH2-Asp-Leu-Tyr-Arg-Met-Lys-Ser-COOH] | 81.4 ± 0.64% | could sustain 7-mer bioactivity, only partly | – | –
18 | CC(=O)N[C@@H](CC(N)=O)C(=O)N[C@H](C(=O)N[C@@H](Cc1ccc(O)cc1)C(=O)N[C@@H](CCCNC(=N)N)C(=O)N[C@H](C(=O)N[C@@H](CCCNC(=N)N)C(=O)N[C@@H](CO)C(N)=O)C(C)C)C(C)C [7-mer NV, NH2-Asn-Val-Tyr-Arg-Val-Arg-Ser-COOH] | 74.8 ± 1.73% | could sustain 7-mer bioactivity, only partly | – | –
19 | CC(=O)N[C@@H](CC(=O)O)C(=O)N[C@@H](CC(C)C)C(=O)N[C@@H](Cc1ccc(O)cc1)C(=O)N[C@@H](CCCNC(=N)N)C(=O)N[C@@H](CCC(N)=O)C(=O)N[C@@H](CCCCN)C(=O)N[C@@H](CO)C(N)=O [7-mer QK, NH2-Asp-Leu-Tyr-Arg-Gln-Lys-Ser-COOH] | 77.7 ± 3.02% | could sustain 7-mer bioactivity, only partly | – | –
20 | CC(=O)N[C@@H](CC(=O)O)C(=O)N[C@@H](CC(C)C)C(=O)N[C@@H](Cc1ccc(O)cc1)C(=O)N[C@@H](CCCNC(=N)N)C(=O)N[C@H](C(=O)N[C@@H](C)C(=O)N[C@@H](CO)C(N)=O)C(C)C [7-mer R2a, NH2-Asp-Leu-Tyr-Arg-Val-Ala-Ser-COOH] | 94.6 ± 1.65% | – | – | –
21 | CC(=O)N[C@@H](CC(=O)O)C(=O)N[C@@H](CC(C)C)C(=O)N[C@@H](Cc1ccc(O)cc1)C(=O)N[C@@H](C)C(=O)N[C@H](C(=O)N[C@@H](CCCNC(=N)N)C(=O)N[C@@H](CO)C(N)=O)C(C)C [7-mer Ra, NH2-Asp-Leu-Tyr-Ala-Val-Arg-Ser-COOH] | 99.5 ± 1.51% | – | – | –
22 | CC(=O)N[C@@H](CC(=O)O)C(=O)N[C@@H](CC(C)C)C(=O)N[C@@H](Cc1ccc(O)cc1)C(=O)N[C@@H](CCCNC(=N)N)C(=O)N[C@H](C(=O)N[C@@H](CCCNC(=N)N)C(=O)N[C@@H](C)C(N)=O)C(C)C [7-mer Sa, NH2-Asp-Leu-Tyr-Arg-Val-Arg-Ala-COOH] | 93.1 ± 2.47% | – | – | –
23 | CC(=O)N[C@@H](CC(=O)O)C(=O)N[C@@H](CC(C)C)C(=O)N[C@@H](Cc1ccc(O)cc1)C(=O)N[C@@H](CCCNC(=N)N)C(=O)N[C@@H](C)C(=O)N[C@@H](CCCNC(=N)N)C(=O)N[C@@H](CO)C(N)=O [7-mer Va, NH2-Asp-Leu-Tyr-Arg-Ala-Arg-Ser-COOH] | 97.7 ± 0.6% | – | – | –
24 | CC(=O)N[C@@H](CC(=O)O)C(=O)N[C@@H](CC(C)C)C(=O)N[C@@H](C)C(=O)N[C@@H](CCCNC(=N)N)C(=O)N[C@H](C(=O)N[C@@H](CCCNC(=N)N)C(=O)N[C@@H](CO)C(N)=O)C(C)C [7-mer Ya, NH2-Asp-Leu-Ala-Arg-Val-Arg-Ser-COOH] | 97.6 ± 0.56% | – | – | –
25 | NH2-Asp-Leu-Tyr-Arg-Val-Arg-COOH (DLYRVR; not fully specified (N-terminus, C-terminus); printed as NH2-Asp-Leu-Tyr-Arg-Val-Arg-COOH) [control peptide, serine residue of the 7-mer deleted, reference compound] | – | does not possess any biological function | – | –
